Measured values as given in the supplement of paper PMC11061612.

How the values were obtained:
Assay in all cases: combination Emax (second highest fraction inhibited in the dose matrix, 72 h); higher = more inhibition; extreme values may be limits of the assay
[1] = system: NCI-H1993 (Lung Adenocarcinoma)
Procedure, shortened: (§1)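 Cell lines in DMEM/F12 or RPMI with 10% FBS were plated in 1536-well plates, held 24 hours at 37°C, 5% CO2, then given two-drug dose matrices for 72 hours (DMSO typically 0.2%). Viability was read by CellTiter-Glo 2.0 luminescence and scaled as inhibition from 0 (vehicle wells) to 1 (blank wells). Combination Emax is the second-highest inhibition in the matrix; Bliss excess is observed combination effect minus expected EA + EB − EA·EB, EA and EB being single-agent effects.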

[2] = system: SK-LU-1 (Lung Adenocarcinoma)
Procedure, shortened: as §1

[3] = system: EJM (Plasma Cell Myeloma)
Procedure, shortened: as §1

[4] = system: NCI-H650 (Lung Adenocarcinoma)
Procedure, shortened: as §1

Row | SMILES | combination Emax [1] | combination Emax [2] | combination Emax [3] | combination Emax [4]
1 | C=CCn1c(=O)c2cnc(Nc3ccc(N4CCN(C)CC4)cc3)nc2n1-c1cccc(C(C)(C)O)n1 [AZD1775] + CCc1c2c(nc3ccc(O)cc13)-c1cc3c(c(=O)n1C2)COC(=O)[C@]3(O)CC [SN-38] (first compound max 1 µM, partner max 0.3 µM) | 0.739 | 0.645 | – | –
2 | C=CCn1c(=O)c2cnc(Nc3ccc(N4CCN(C)CC4)cc3)nc2n1-c1cccc(C(C)(C)O)n1 [AZD1775] + Nc1ccn([C@@H]2O[C@H](CO)[C@@H](O)C2(F)F)c(=O)n1 [Gemcitabine] (first compound max 1 µM, partner max 0.3 µM) | 0.905 | 0.457 | – | –
3 | CN(CCO)CC[C@H](CSc1ccccc1)Nc1ccc(S(=O)(=O)NC(=O)c2ccc(N3CCC([C@@H](O)c4ccccc4-c4ccc(Cl)cc4)CC3)cc2)cc1S(=O)(=O)C(F)(F)F [AZD4320] + CS(=O)(=O)CCNCc1ccc(-c2ccc3ncnc(Nc4ccc(OCc5cccc(F)c5)c(Cl)c4)c3c2)o1 [Lapatinib] (first compound max 1 µM, 7x7, partner max 10 µM) | 0.943 | 0.47 | – | –
4 | Cc1c2c(nn1C)CSCc1cc(n(C)n1)CSc1cc(c3ccccc3c1)OCCCc1c(C(=O)O)n(C)c3c-2c(Cl)ccc13 [AZD5991] + CC(=O)O[C@H]1C(=O)[C@@]2(C)[C@H]([C@H](OC(=O)c3ccccc3)[C@]3(O)C[C@H](OC(=O)[C@H](O)[C@@H](NC(=O)c4ccccc4)c4ccccc4)C(C)=C1C3(C)C)[C@]1(OC(C)=O)CO[C@@H]1C[C@@H]2O [Paclitaxel] (first compound max 1 µM, 7x7, partner max 3 µM) | 0.863 | 0.39 | – | –
5 | Cc1c2c(nn1C)CSCc1cc(n(C)n1)CSc1cc(c3ccccc3c1)OCCCc1c(C(=O)O)n(C)c3c-2c(Cl)ccc13 [AZD5991] + CS(=O)(=O)CCNCc1ccc(-c2ccc3ncnc(Nc4ccc(OCc5cccc(F)c5)c(Cl)c4)c3c2)o1 [Lapatinib] (first compound max 1 µM, 7x7, partner max 10 µM) | 0.433 | 0.229 | – | –
6 | COc1cccc2c1C(=O)c1c(O)c3c(c(O)c1C2=O)C[C@@](O)(C(=O)CO)C[C@@H]3O[C@H]1C[C@H](N)[C@H](O)[C@H](C)O1 [Doxorubicin] + Cc1cc2ncnn2cc1Nc1ncc2c(n1)n(C1CCOCC1)c(=O)n2C [AZD7648] (first compound max 1 µM, 7x7, partner max 10 µM) | 0.968 | – | 0.903 | 0.334
7 | COc1cccc(OCCCN)c1-c1cc(Nc2cnc(C#N)cn2)n[nH]1 [Prexasertib] + C=CCn1c(=O)c2cnc(Nc3ccc(N4CCN(C)CC4)cc3)nc2n1-c1cccc(C(C)(C)O)n1 [AZD1775] (first compound max 1 µM, partner max 1 µM) | 0.906 | – | 0.954 | 0.732
8 | COc1cccc(OCCCN)c1-c1cc(Nc2cnc(C#N)cn2)n[nH]1 [Prexasertib] + CCc1c2c(nc3ccc(O)cc13)-c1cc3c(c(=O)n1C2)COC(=O)[C@]3(O)CC [SN-38] (first compound max 1 µM, 7x7, partner max 0.3 µM) | 0.938 | – | 0.952 | 0.815
9 | COc1cccc(OCCCN)c1-c1cc(Nc2cnc(C#N)cn2)n[nH]1 [Prexasertib] + CN(C)CCCOc1ccc(-c2ccc3ncc4c(c3c2)n(C2CCOCC2)c(=O)n4C)cn1 [AZD0156] (first compound max 1 µM, 7x7, partner max 1 µM) | 0.826 | – | 0.93 | 0.671
10 | COc1cccc(OCCCN)c1-c1cc(Nc2cnc(C#N)cn2)n[nH]1 [Prexasertib] + C[C@@H]1COCCN1C2=NC(=NC(=C2)C3(CC3)[S@](=N)(=O)C)C4=C5C=CNC5=NC=C4 [AZD6738] (first compound max 1 µM, 7x7, partner max 10 µM) | 0.721 | – | 0.947 | 0.647
11 | COc1cccc(OCCCN)c1-c1cc(Nc2cnc(C#N)cn2)n[nH]1 [Prexasertib] + Cc1cc2ncnn2cc1Nc1ncc2c(n1)n(C1CCOCC1)c(=O)n2C [AZD7648] (first compound max 1 µM, 7x7, partner max 10 µM) | 0.777 | – | 0.941 | 0.653
12 | COc1cccc(OCCCN)c1-c1cc(Nc2cnc(C#N)cn2)n[nH]1 [Prexasertib] + O=C(c1cc(Cc2n[nH]c(=O)c3ccccc23)ccc1F)N1CCN(C(=O)C2CC2)CC1 [Olaparib] (first compound max 1 µM, 7x7, partner max 10 µM) | 0.845 | – | 0.969 | 0.708
13 | CCc1c2c(nc3ccc(O)cc13)-c1cc3c(c(=O)n1C2)COC(=O)[C@]3(O)CC [SN-38] + CN(C)CCCOc1ccc(-c2ccc3ncc4c(c3c2)n(C2CCOCC2)c(=O)n4C)cn1 [AZD0156] (first compound max 0.3 µM, 7x7, partner max 1 µM) | 0.696 | – | 0.903 | 0.607
14 | CCc1c2c(nc3ccc(O)cc13)-c1cc3c(c(=O)n1C2)COC(=O)[C@]3(O)CC [SN-38] + O=C(c1cc(Cc2n[nH]c(=O)c3ccccc23)ccc1F)N1CCN(C(=O)C2CC2)CC1 [Olaparib] (first compound max 0.3 µM, 7x7, partner max 10 µM) | 0.635 | – | 0.944 | –
15 | CC(=O)Nc1cccc(-n2c(=O)n(C3CC3)c(=O)c3c(Nc4ccc(I)cc4F)n(C)c(=O)c(C)c32)c1 [Trametinib] + Cc1nc(-c2cn3c(n2)-c2ccc(-c4cnn(C(C)(C)C(N)=O)c4)cc2OCC3)n(C(C)C)n1 [Taselisib] (first compound max 1 µM, 7x7, partner max 10 µM) | 0.898 | – | 0.488 | 0.705
16 | CC1(C)CCC(CN2CCN(c3ccc(C(=O)NS(=O)(=O)c4ccc(NCC5CCOCC5)c([N+](=O)[O-])c4)c(Oc4cnc5[nH]ccc5c4)c3)CC2)=C(c2ccc(Cl)cc2)C1 [Venetoclax] + C1CN(CCC1(C(=O)N[C@@H](CCO)C2=CC=C(C=C2)Cl)N)C3=NC=NC4=C3C=CN4 [Capivasertib] (first compound max 1 µM, 7x7, partner max 3 µM) | 0.5 | – | 0.255 | 0.143
17 | CC1(C)CCC(CN2CCN(c3ccc(C(=O)NS(=O)(=O)c4ccc(NCC5CCOCC5)c([N+](=O)[O-])c4)c(Oc4cnc5[nH]ccc5c4)c3)CC2)=C(c2ccc(Cl)cc2)C1 [Venetoclax] + C=CCn1c(=O)c2cnc(Nc3ccc(N4CCN(C)CC4)cc3)nc2n1-c1cccc(C(C)(C)O)n1 [AZD1775] (first compound max 1 µM, partner max 1 µM) | 0.629 | – | 0.928 | 0.393
18 | CC1(C)CCC(CN2CCN(c3ccc(C(=O)NS(=O)(=O)c4ccc(NCC5CCOCC5)c([N+](=O)[O-])c4)c(Oc4cnc5[nH]ccc5c4)c3)CC2)=C(c2ccc(Cl)cc2)C1 [Venetoclax] + CCN(CCO)CCCOc1ccc2c(Nc3cc(CC(=O)Nc4cccc(F)c4)[nH]n3)ncnc2c1 [AZD2811] (first compound max 1 µM, 7x7, partner max 1 µM) | 0.232 | – | 0.261 | 0.178
19 | CC1(C)CCC(CN2CCN(c3ccc(C(=O)NS(=O)(=O)c4ccc(NCC5CCOCC5)c([N+](=O)[O-])c4)c(Oc4cnc5[nH]ccc5c4)c3)CC2)=C(c2ccc(Cl)cc2)C1 [Venetoclax] + CN(C)CCCOc1ccc(-c2ccc3ncc4c(c3c2)n(C2CCOCC2)c(=O)n4C)cn1 [AZD0156] (first compound max 1 µM, 7x7, partner max 1 µM) | 0.413 | – | 0.159 | 0.0987
20 | CC1(C)CCC(CN2CCN(c3ccc(C(=O)NS(=O)(=O)c4ccc(NCC5CCOCC5)c([N+](=O)[O-])c4)c(Oc4cnc5[nH]ccc5c4)c3)CC2)=C(c2ccc(Cl)cc2)C1 [Venetoclax] + COc1cc(Nc2ncc3c(n2)-c2ccc(Cl)cc2C(c2c(F)cccc2OC)=NC3)ccc1C(=O)O [Alisertib] (first compound max 1 µM, 7x7, partner max 10 µM) | 0.308 | – | 0.146 | 0.319
21 | CC1(C)CCC(CN2CCN(c3ccc(C(=O)NS(=O)(=O)c4ccc(NCC5CCOCC5)c([N+](=O)[O-])c4)c(Oc4cnc5[nH]ccc5c4)c3)CC2)=C(c2ccc(Cl)cc2)C1 [Venetoclax] + C[C@@H]1COCCN1C2=NC(=NC(=C2)C3(CC3)[S@](=N)(=O)C)C4=C5C=CNC5=NC=C4 [AZD6738] (first compound max 1 µM, 7x7, partner max 10 µM) | 0.582 | – | 0.869 | 0.276
22 | CC1(C)CCC(CN2CCN(c3ccc(C(=O)NS(=O)(=O)c4ccc(NCC5CCOCC5)c([N+](=O)[O-])c4)c(Oc4cnc5[nH]ccc5c4)c3)CC2)=C(c2ccc(Cl)cc2)C1 [Venetoclax] + C[C@@H](Nc1cc(F)cc(F)c1)c1cc(C(=O)N(C)C)cc2c(=O)cc(N3CCOCC3)oc12 [AZD8186] (first compound max 1 µM, 7x7, partner max 3 µM) | 0.296 | – | 0.278 | 0.142
23 | CC1(C)CCC(CN2CCN(c3ccc(C(=O)NS(=O)(=O)c4ccc(NCC5CCOCC5)c([N+](=O)[O-])c4)c(Oc4cnc5[nH]ccc5c4)c3)CC2)=C(c2ccc(Cl)cc2)C1 [Venetoclax] + Cc1cc2ncnn2cc1Nc1ncc2c(n1)n(C1CCOCC1)c(=O)n2C [AZD7648] (first compound max 1 µM, 7x7, partner max 10 µM) | 0.541 | – | 0.238 | 0.197
24 | CC1(C)CCC(CN2CCN(c3ccc(C(=O)NS(=O)(=O)c4ccc(NCC5CCOCC5)c([N+](=O)[O-])c4)c(Oc4cnc5[nH]ccc5c4)c3)CC2)=C(c2ccc(Cl)cc2)C1 [Venetoclax] + Cn1cnc2c(F)c(Nc3ccc(Br)cc3Cl)c(C(=O)NOCCO)cc21 [Selumetinib] (first compound max 1 µM, 7x7, partner max 3 µM) | 0.436 | – | 0.0906 | 0.239
